In PubChem BioAssay (NCI):
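GI50 is the concentration that inhibits growth by half. TGI marks complete inhibition of growth.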

Key:
Experiment in all cases: NCI-60 cell line screen, 384-well format
[1] = tested on: 786-0 renal
[2] = tested on: A498 renal
[3] = tested on: A549 NSCLC
[4] = tested on: ACHN renal
[5] = tested on: BT-549 breast
[6] = tested on: CAKI-1 renal
[7] = tested on: CCRF-CEM leukemia
[8] = tested on: COLO 205 colon
[9] = tested on: DU-145 prostate
[10] = tested on: EKVX NSCLC
[11] = tested on: HCC-2998 colon
[12] = tested on: HCT-116 colon
[13] = tested on: HCT-15 colon
[14] = tested on: HL-60(TB) leukemia
[15] = tested on: HOP-62 NSCLC
[16] = tested on: HOP-92 NSCLC
[17] = tested on: HS 578T breast
[18] = tested on: HT29 colon
[19] = tested on: IGROV1 ovarian
[20] = tested on: K-562 leukemia
[21] = tested on: KM12 colon
[22] = tested on: LOX IMVI melanoma
[23] = tested on: M14 melanoma
[24] = tested on: MALME-3M melanoma
[25] = tested on: MCF7 breast
[26] = tested on: MDA-MB-231 breast
[27] = tested on: MDA-MB-435 melanoma
[28] = tested on: MDA-MB-468 breast
[29] = tested on: MOLT-4 leukemia
[30] = tested on: NCI-H226 lung
[31] = tested on: NCI-H23 lung
[32] = tested on: NCI-H322M lung
[33] = tested on: NCI-H460 NSCLC
[34] = tested on: NCI-H522 lung
[35] = tested on: NCI/ADR-RES ovarian
[36] = tested on: OVCAR-3 ovarian
[37] = tested on: OVCAR-4 ovarian
[38] = tested on: OVCAR-5 ovarian
[39] = tested on: OVCAR-8 ovarian
[40] = tested on: PC-3 prostate
[41] = tested on: RPMI-8226 leukemia
[42] = tested on: RXF 393 renal
[43] = tested on: SF-268 CNS
[44] = tested on: SF-295 CNS
[45] = tested on: SF-539 CNS
[46] = tested on: SK-MEL-2 melanoma
[47] = tested on: SK-MEL-28 melanoma
[48] = tested on: SK-OV-3 ovarian
[49] = tested on: SN12C renal
[50] = tested on: SNB-19 CNS
[51] = tested on: SNB-75 CNS
[52] = tested on: SR leukemia
[53] = tested on: SW-620 colon
[54] = tested on: T-47D breast
[55] = tested on: TK-10 renal
[56] = tested on: U251 glioblastoma
[57] = tested on: UACC-257 melanoma
[58] = tested on: UACC-62 melanoma
[59] = tested on: UO-31 renal

CO[C@H]1C[C@@H]2CC[C@@H](C)[C@@](O)(O2)C(=O)C(=O)N2CCCC[C@H]2C(=O)O[C@H]([C@H](C)C[C@@H]2CC[C@@H](O)[C@H](OC)C2)CC(=O)[C@H](C)C=C(C)[C@@H](O)[C@@H](OC)C(=O)[C@H](C)C[C@H](C)/C=C/C=C/C=C1C
GI50 [1]: 5.99 µM | TGI [1]: 26.9 µM | TGI [2]: 17.4 µM | TGI [3]: > 45.4 µM | GI50 [4]: 1.61 µM | TGI [4]: 23.4 µM | GI50 [5]: 3.98 µM | TGI [5]: 18.7 µM | TGI [6]: 21.5 µM | TGI [7]: 7.12 µM | GI50 [8]: 11.3 µM | TGI [8]: 23.4 µM | GI50 [9]: 4.69 µM | TGI [9]: 36.2 µM | GI50 [10]: 12.3 µM | TGI [10]: 29.1 µM | GI50 [11]: 4.72 µM | TGI [11]: 18.6 µM | GI50 [12]: 8.71 µM | TGI [12]: 24.2 µM | GI50 [13]: 3.92 µM | TGI [13]: 19.7 µM | GI50 [14]: 3.98 µM | TGI [14]: 7.97 µM | TGI [15]: 20.2 µM | GI50 [16]: 11 µM | TGI [16]: 25 µM | TGI [17]: 9.94 µM | GI50 [18]: 6.66 µM | TGI [18]: 21.8 µM | TGI [19]: 15.3 µM | GI50 [20]: 4.35 µM | TGI [20]: 18.4 µM | GI50 [21]: 10.2 µM | TGI [21]: 23.1 µM | GI50 [22]: 13.1 µM | TGI [22]: 25.8 µM | GI50 [23]: 11 µM | TGI [23]: 23.7 µM | TGI [24]: 20.6 µM | TGI [25]: 15.4 µM | GI50 [26]: 12 µM | TGI [26]: 24.5 µM | GI50 [27]: 11.6 µM | TGI [27]: 24.2 µM | TGI [28]: 8.1 µM | TGI [29]: 4.88 µM | GI50 [30]: 10.3 µM | TGI [30]: 23.5 µM | GI50 [31]: 12 µM | TGI [31]: 24.8 µM | GI50 [32]: 12.7 µM | TGI [32]: 25.8 µM | TGI [33]: 16.8 µM | GI50 [34]: 6.69 µM | TGI [34]: 21.4 µM | GI50 [35]: 14.9 µM | TGI [35]: 34.2 µM | GI50 [36]: 10.9 µM | TGI [36]: 24.2 µM | GI50 [37]: 9.82 µM | TGI [37]: 25.5 µM | GI50 [38]: 12.9 µM | TGI [38]: 27.4 µM | GI50 [39]: 7.29 µM | TGI [39]: 22.6 µM | TGI [40]: 17.9 µM | TGI [41]: 4.45 µM | GI50 [42]: 12.5 µM | TGI [42]: 25.2 µM | GI50 [43]: 10.2 µM | TGI [43]: 23.8 µM | TGI [44]: 20 µM | GI50 [45]: 2.53 µM | TGI [45]: 19.6 µM | GI50 [46]: 11.2 µM | TGI [46]: 27.9 µM | GI50 [47]: 12.7 µM | TGI [47]: 25.5 µM | GI50 [48]: 10.7 µM | TGI [48]: 22.9 µM | GI50 [49]: 7.42 µM | TGI [49]: 24.5 µM | GI50 [50]: 6.46 µM | TGI [50]: 23.2 µM | GI50 [51]: 13 µM | TGI [51]: 25.8 µM | TGI [52]: 1.89 µM | GI50 [53]: 13 µM | TGI [53]: 26 µM | GI50 [54]: 1.33 µM | TGI [54]: 36.6 µM | GI50 [55]: 0.518 µM | TGI [55]: 27.5 µM | GI50 [56]: 3.94 µM | TGI [56]: 20.3 µM | GI50 [57]: 16 µM | TGI [57]: 29.6 µM | GI50 [58]: 4.54 µM | TGI [58]: 19.7 µM | GI50 [59]: 11 µM | TGI [59]: 23.2 µM
